Reference: article PMC12715788, “Unraveling the Potential of Small Molecule Heparin Glycomimetics in Neuroregenerative Therapeutics” (Journal of the American Chemical Society, 2025)
“And” between values parts separate entries of the source, which are not always exact repeats. Equal values may be shown once. Read-outs that look alike come from different tables or passages of the source.

Key:
FGF-2 [1] = target: T1, FGF-2 (Homo sapiens, UniProt P09038); assay: Far-UV CD spectroscopy and CD thermal denaturation; details: CD thermal denaturation 10–90 °C; protein with sugar, 1:3 molar ratio
T1 sequence (P09038 134-288 limits assumed, species assumed): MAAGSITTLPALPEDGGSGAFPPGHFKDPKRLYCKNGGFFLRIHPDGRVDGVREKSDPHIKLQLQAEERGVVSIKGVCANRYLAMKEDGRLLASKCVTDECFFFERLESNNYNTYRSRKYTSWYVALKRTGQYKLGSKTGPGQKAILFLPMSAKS
Text: (§1) To select a lead compound, we complemented the affinity data with a series of studies evaluating the structural and functional implications of protein-HS glycomimetic interactions. We assessed the therapeutic safety profile of our HS glycomimetics. We also employed circular dichroism (CD) spectroscopy to assess secondary structural changes in protein conformation upon binding to native HS and HS glycomimetics. Since native HS alone produces only a minimal signal, it was ensured that its contribution would not interfere with protein-sugar complex spectra. Therefore, only the far-UV CD spectra of bare proteins and their sugar complexes were recorded. […] Upon incubation with sugars (1:3 molar ratio), significant spectral changes were observed, indicating sugar-induced alterations in secondary structure (Figure A).
(§2) We also evaluated the thermal stability of the proteins and their sugar complexes by CD-based thermal denaturation experiments. The spectra were recorded across a temperature range of 10–90 °C (Figure B). For all proteins except AT-III, the unfolding profiles were analyzed to determine the melting temperature (T m), representing the midpoint of the transition from the folded to the unfolded state, an indicator of structural integrity and resistance to thermal denaturation. The calculated values are compiled in Table .

FGF-1 [2] = target: T2, FGF-1 (Homo sapiens, UniProt P05230); assay: Far-UV CD spectroscopy and CD thermal denaturation; details: CD thermal denaturation 10–90 °C; protein with sugar, 1:3 molar ratio
T2 sequence (P05230 whole entry, species assumed): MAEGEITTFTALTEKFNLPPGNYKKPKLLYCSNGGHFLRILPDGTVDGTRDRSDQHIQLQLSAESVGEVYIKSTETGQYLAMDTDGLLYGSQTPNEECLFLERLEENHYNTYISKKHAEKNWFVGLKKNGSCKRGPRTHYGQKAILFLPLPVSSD
Text: as §1, §2

[3] = tested on: citrated pooled rat plasma; assay: Activated partial thromboplastin time (aPTT) assay
Text: To complement these findings, we performed an activated partial thromboplastin time (aPTT) assay in citrated pooled rat plasma to assess the overall impact of the compounds on the intrinsic coagulation pathway. This global clotting assay measures the time required for fibrin formation and is sensitive to anticoagulant effects. Figure F,G compare the effects of UFH, heparan sulfate, Fondaparinux, and the synthetic glycomimetics when supplemented into citrated plasma. […] As expected, UFH produced a strong, concentration-dependent anticoagulant response, prolonging the mean clotting time to 271 s at the highest concentration tested, while heparan sulfate and Fondaparinux induced weaker but measurable effects (83 and 37 s, respectively). […] The results further confirm that selective sulfation patterns can decouple GF recognition from anticoagulant function, an essential prerequisite for their translational application in regenerative medicine. […] These interactions are in line with nonspecific electrostatic binding, a feature of highly sulfated oligosaccharides known to engage different proteins via charge-based, rather than specific, biologically targeted interactions. Thus, to avoid potential off-target effects associated with highly sulfated analogues, we selected the disaccharide D2 for subsequent biological experiments.

[4] = tested on: rat dissociated hippocampal neurons; assay: Neurite morphometry in dissociated hippocampal neurons; type: cell-based; details: 24 h treatment, 1 day in vitro, D2 1 μM, FGF-2 40 ng/mL, mean ± SEM
Protocol: In the pursuit of this, we used rat dissociated hippocampal neurons as an in vitro model system. We assessed the impact of HS glycomimetics on neuronal morphology, using immunofluorescence imaging and quantitative morphometric analysis, and on synaptic functionality through electrophysiological monitoring of spontaneous neuronal activity.
During the first day of differentiation in vitro (Table S7.1 in SI), neurons were treated for 24 h with either control medium, glycomimetic D2 (1 μM), FGF-2 (40 ng/mL) alone, or a combination of FGF-2 and D2 (40 ng/mL and 1 μM, respectively). After treatments, cultures were fixed and immuno-labeled with antibodies against the neuronal marker β-Tubulin III to study cell morphology. […] Quantitative analysis further corroborated these observations (Figure B–C).

FGF-2 [5] = target: T1, FGF-2; assay: BLI competition assay with immobilized native HS for FGF-2 binding
Text: We next examined the functional relevance of the synthetic HS glycomimetics by testing their ability to compete with native HS for FGF-2 binding using competition assays. Although direct binding assays measure the intrinsic affinity of HS glycomimetics for FGF-2, they are limited in representing the complex, multimolecular environment of biological systems. In vivo, FGF-2 activity is tightly regulated by its interactions with GAGs, which are abundant on cell surfaces and in the ECM. These interactions stabilize FGF-2 and facilitate its dimerization with FGF receptors (FGFRs), a requirement for effective signal transduction. , Thus, therapeutic candidates targeting FGF-2 must be evaluated not only for direct binding but also for their ability to modulate or disrupt GAG-mediated interactions. Therefore, we performed competition assays in which native HS was immobilized on the sensor surface. Solutions containing a fixed concentration of FGF-2 (50 nM) were premixed with varying concentrations of HS glycomimetics, functioning as inhibitors in this context, (M1, D1, D2, D3, and T1) and also with the heparin hexasaccharide (H1) (GlcNS6S-GlcA-GlcNS3S6S-IdoA2S-GlcNS6S-GlcA), a well-studied HS glycomimetic in the literature, as a positive control (Figure B). […] The progressive decrease in signal intensity with increasing inhibitor concentration directly reflects competition with immobilized HS for FGF-2 binding.

FGF-2 [6] = target: T1, FGF-2; assay: BLI binding assay, sugars immobilized, protein as analyte; details: steady-state affinity curve fitting
Protocol: (§3) We evaluated the binding affinity of native HS and synthetic HS glycomimetics (M1, D1, D2, D3, and T1) to these proteins using biolayer interferometry (BLI). The terminal amino groups of the sugars were immobilized onto the sensor surface using standard amine coupling chemistry, and binding assays were performed by introducing the proteins as analytes at varying concentrations (Figure A). The equilibrium dissociation constants (K D) were determined using the steady-state affinity curve fitting.

FGF-1 [7] = target: T2, FGF-1; assay: as above; details: steady-state affinity curve fitting
Protocol: as §3

NGF = NGF (Homo sapiens, UniProt P01138); assay: as above; details: steady-state affinity curve fitting
Sequence of NGF (P01138 122-241): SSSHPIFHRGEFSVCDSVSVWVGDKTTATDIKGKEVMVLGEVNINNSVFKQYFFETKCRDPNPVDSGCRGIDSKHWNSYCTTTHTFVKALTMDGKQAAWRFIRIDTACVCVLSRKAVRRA
Protocol: as §3

AT-III = AT-III (Homo sapiens, UniProt P01008); assay: as above
Sequence of AT-III (P01008 33-464): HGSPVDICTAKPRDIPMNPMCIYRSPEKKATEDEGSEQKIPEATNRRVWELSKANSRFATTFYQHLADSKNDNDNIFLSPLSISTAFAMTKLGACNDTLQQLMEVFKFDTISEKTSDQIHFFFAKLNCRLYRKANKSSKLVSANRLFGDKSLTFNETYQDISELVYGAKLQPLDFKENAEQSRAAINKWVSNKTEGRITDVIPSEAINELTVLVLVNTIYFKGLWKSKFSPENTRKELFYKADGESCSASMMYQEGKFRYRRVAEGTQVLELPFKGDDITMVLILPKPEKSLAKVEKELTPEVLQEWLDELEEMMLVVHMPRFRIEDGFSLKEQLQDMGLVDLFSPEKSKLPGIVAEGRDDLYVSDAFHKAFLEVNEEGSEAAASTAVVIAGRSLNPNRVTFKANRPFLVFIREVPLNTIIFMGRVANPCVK
Protocol: as §3

SH-SY5Y cells = assay: NGF-mediated neuronal maturation on sugar-coated substrates, β-tubulin III fluorescence; type: cell-based, human; details: SH-SY5Y cells on coated surface, NGF 50 ng/mL; control 1.43
Text: (§4) We next examined the NGF-induced neuritogenic potential of the HS glycomimetics to determine whether they could potentiate neurotrophin-driven neuronal differentiation. To mimic the native role of HS proteoglycans in the ECM, which spatially sequester and present growth factors, we immobilized D2 and also native HS as a positive control onto culture substrates and evaluated its capacity to modulate neural maturation in two well-established neuronal cell models of different species origins, rat-derived PC12 cells and human-derived SH-SY5Y cells. These models represent distinct stages of neuronal differentiation and maturation, and the choice enabled us to compare cellular responses across species, thereby enhancing the translational relevance of our findings. PC12 cells respond to NGF by exiting the cell cycle and extending neurites, while SH-SY5Y cells serve as a model for later-stage maturation and neurite elongation. ,
In this context, the immobilization of D2 onto culture substrates provided a means to investigate how its presentation as an ECM-like component influences neurotrophic responses, particularly in combination with NGF. In both cell lines, D2 and native HS were applied to the substrate prior to seeding, thereby mimicking its natural role as a structural component of the ECM. […]

PC12 cells = assay: NGF-mediated neurite outgrowth on sugar-coated substrates; type: cell-based, rat; details: PC12 cells on coated surface, NGF 50 ng/mL; control 108 μm
Text: as §4, with “elongation. , […]” for “elongation. ,”
In PC12 cells, which serve as a classical model for NGF-induced neuronal differentiation, the presence of both immobilized D2 and native HS coatings led to notable morphological changes relative to control conditions (Figure C). […] Although images used for quantification were selected from well-dispersed regions, we also observed instances of cell clustering in both control and D2 groups (Figure S6.1, Supporting Information). […]

FGF-2 Sample Tm (FGF-2 [1]): 52.4 °C and 52.4 ± 1.2 °C
FGF-1 Sample Tm (FGF-1 [2]): 45.0 °C and 45.0 ± 0.4 °C
aPTT mean clotting time ([3]; citrated pooled rat plasma, highest concentration tested, control 22 s): 24 s
anticoagulant activity ([3]; conclusion from aPTT and chromogenic assays): without any anticoagulant activity
IC50 (FGF-2 [5]; FGF-2 50 nM, fixed association time t = 240 s, read-out: Apparent IC50(t), competition with immobilized native HS for FGF-2 binding): 17.9 µM
Kd (FGF-2 [6]): 0.67 µM
Kd (FGF-1 [7]): 0.78 µM
Kd (NGF; read-out: KD for NGF, two-site binding model, first value): 2.6 µM
Kd (NGF; read-out: KD for NGF, two-site binding model, second value): 468 µM
binding to AT-III (AT-III): no measurable binding
Compound: CC(=O)N[C@H]1[C@@H](OCCN)O[C@H](COS(=O)(=O)O)[C@@H](O[C@@H]2O[C@@H](C(=O)O)[C@@H](OS(=O)(=O)O)[C@H](O)[C@H]2OS(=O)(=O)O)[C@@H]1O [D2, IdoA2S4S-GlcNAc6S]
number of neurites emerging from the cell body ([4]; control 3.6 ± 0.22): 3.8 ± 0.23 neurites per neuron
length of the longest neurite ([4]; control 38 ± 2): 43 ± 3 μm
competition with immobilized native HS for FGF-2 binding, signal intensity (FGF-2 [5]; FGF-2 50 nM premixed with varying concentrations): dose-dependent reduction in signal intensity
mean normalized β-tubulin III fluorescence intensity (SH-SY5Y cells): 2.15
total neurite outgrowth per image (average sum of neurite length) (PC12 cells): 541 μm
